According to paper PMC8881573, “Inhibition of SRP-dependent protein secretion by the bacterial alarmone (p)ppGpp” (Nature Communications, 2022):

Assays:
[1] = target: T1, SRP/FtsY (Escherichia coli, UniProt P0AGD7+P10121); assay: Floatation analysis of co-translational membrane targeting of RNCs to SecYEG-proteoliposomes; format: biochemical, E. coli; conditions: 50 µM final concentration, 10 µM GTP
T1 construct: (Ec)Ffh (full-length) was concentrated on a 10 kDa centrifugal filter; (Ec)FtsY (full-length) was re-buffered in HT buffer; His-tag; made in house; host or cells: E. coli
T1 sequence (P0AGD7 whole entry): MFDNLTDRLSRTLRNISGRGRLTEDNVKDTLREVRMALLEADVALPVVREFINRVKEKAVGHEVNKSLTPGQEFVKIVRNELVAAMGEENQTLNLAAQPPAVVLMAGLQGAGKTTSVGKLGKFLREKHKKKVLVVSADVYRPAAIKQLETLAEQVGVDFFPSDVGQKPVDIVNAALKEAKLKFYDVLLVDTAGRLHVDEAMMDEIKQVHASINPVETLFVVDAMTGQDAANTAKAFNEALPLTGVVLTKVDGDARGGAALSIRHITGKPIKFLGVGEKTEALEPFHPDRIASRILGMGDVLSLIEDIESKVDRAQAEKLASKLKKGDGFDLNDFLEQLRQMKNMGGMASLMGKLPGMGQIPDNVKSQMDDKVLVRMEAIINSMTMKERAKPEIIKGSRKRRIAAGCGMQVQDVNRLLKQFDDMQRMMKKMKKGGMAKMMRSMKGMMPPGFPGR
T1 sequence (P10121 whole entry): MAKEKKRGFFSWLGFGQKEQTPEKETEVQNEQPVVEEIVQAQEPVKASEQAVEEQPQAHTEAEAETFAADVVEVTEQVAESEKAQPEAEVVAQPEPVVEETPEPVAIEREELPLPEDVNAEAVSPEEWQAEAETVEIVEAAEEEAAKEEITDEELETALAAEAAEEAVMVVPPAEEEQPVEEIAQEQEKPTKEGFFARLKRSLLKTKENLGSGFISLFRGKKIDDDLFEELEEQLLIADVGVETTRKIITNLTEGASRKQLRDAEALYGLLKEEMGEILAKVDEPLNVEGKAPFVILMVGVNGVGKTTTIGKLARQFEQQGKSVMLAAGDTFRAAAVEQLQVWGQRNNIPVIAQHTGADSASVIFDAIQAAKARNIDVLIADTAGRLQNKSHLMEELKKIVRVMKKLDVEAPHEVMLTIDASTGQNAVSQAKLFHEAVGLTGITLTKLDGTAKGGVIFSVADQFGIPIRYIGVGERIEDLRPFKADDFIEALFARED
Experimental: For in vitro synthesizing FtsQ- and LepB-RNCs, the T7-dependent expression vectors pKSM-FtsQ and pKSM-LepB were used[37],[79]. In brief, the first 102 amino acids of LepB, and the first 120 amino acids of FtsQ were fused to the SecM stalling sequence and cloned into the pET19b vector. In vitro synthesis was performed in a coupled transcription/translation system as described for YohP. After in vitro synthesis, the RNCs were incubated with INVs (1 µL), liposomes (2 µL), or SecYEG-proteoliposomes (2 µL; 100 ng SecYEG µL^−1) in floatation buffer (50 mM triethanolamine acetate, pH 8.0; 10 µM GTP, 10 mM magnesium acetate, 70 mM potassium acetate; 250 mM sucrose and 1 mM DTT) for 15 min at 25 °C. When indicated, SRP/FtsY (20 ng µL^−1 each) and ppGpp or pppGpp (50 µM final concentration) was present during incubation. Membrane binding of RNCs was assayed by floatation analyses. The reaction mixture was adjusted to 1.6 M sucrose (final volume 100 µL) and overlaid with 200 µL of 1.25 M sucrose and 100 µL 0.25 M sucrose, each prepared in floatation buffer. Following centrifugation in a TLA 100.2 rotor (Beckmann-Coulter) at […] for 90 min, the upper 200 µL of the gradient, containing the membrane fraction (MF) were withdrawn and precipitated with 10% (w/v) TCA (final concentration). The pelleted (non-bound soluble fraction, SF) RNCs were resuspended in the remaining 200 µL of the gradient and TCA precipitated. Samples were subsequently analyzed by 15% SDS-PAGE and autoradiography. RNC binding to membranes was quantified by using the ImageQuant (GE Healthcare, München, Germany) software. The experiments were performed at least three times as independent experiments and representative images are shown. Mean values and SEM values were determined by using either Excel (Microsoft Corp.) or GraphPad Prism (GraphPad Prism Corp. San Diego).

[2] = target: T2, full-length (Ec)Ffh and (Ec)FtsY-NG (Escherichia coli, UniProt P0AGD7+P10121); assay: GTPase activity (GTP hydrolysis, HPLC); format: biochemical, E. coli; conditions: alarmone at concentrations equimolar to the GTP substrate (1 mM) or higher; with or without 4.5S RNA, ΔEspP signal peptide, C12E8
T2 construct: GTPase activity of full-length (Ec)Ffh and the NG domain of (Ec)FtsY was assayed; His-tag; His6 (C); made in house; host or cells: E. coli BL21 (DE3)
T2 sequence (P0AGD7 whole entry, the tested form may be a part): as the sequence (P0AGD7 whole entry) above
T2 sequence (P10121 197-497): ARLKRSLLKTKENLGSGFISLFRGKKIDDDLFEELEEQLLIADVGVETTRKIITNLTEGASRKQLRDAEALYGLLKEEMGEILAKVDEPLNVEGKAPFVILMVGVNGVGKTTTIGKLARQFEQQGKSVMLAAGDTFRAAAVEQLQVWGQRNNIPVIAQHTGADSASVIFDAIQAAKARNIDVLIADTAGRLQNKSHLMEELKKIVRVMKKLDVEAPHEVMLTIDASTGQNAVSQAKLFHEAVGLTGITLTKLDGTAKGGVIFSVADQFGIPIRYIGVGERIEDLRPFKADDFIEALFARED
Experimental: GTPase activity of full-length (Ec)Ffh and the NG domain of (Ec)FtsY was assayed in a buffer containing 25 mM HEPES-K pH 7.5, 10 mM Mg(OAc)2, 300 mM K(OAc), 1 mM DTT, and 2.5% (v/v) glycerol. The samples contained 5 µM (Ec)Ffh, 5 µM (Ec)FtsY-NG, 6 µM 4.5S RNA, 5 µM ΔEspP (EspP signal peptide sequence: MKK HKR ILA LCF LGL LQS SYS WAK KKK, custom synthesized from Genosphere Biotechnologies (France)[40], and 100 µM C12E8 (octaethylenglykol-monododecylether, Sigma Aldrich)[40] as indicated in figures. Alarmones ppGpp (Jena Bioscience, ≥95% purity) or pppGpp (Jena Bioscience, ≥85% purity) were supplemented in concentrations of 10, 25, 100, 250, 1000, 2500, or 10,000 µM as indicated in the figures. The enzymatic reactions were initiated by the addition of 1 mM GTP (Jena Bioscience, ≥99% purity) and allowed to proceed for 60 min at 37 °C, after which 40 µL double-distilled water were added immediately followed by 150 µL of chloroform. […] The nucleotide content was determined by high-performance liquid chromatography (HPLC) on an Agilent 1260 Infinity system (software: ChemStation Rev. B04.03-SP1) equipped with a Metrosep A Supp 5–150/4.0 column (Metrohm). Ten microliters of sample were injected and nucleotides eluted isocratically at 0.6 mL min^−1 flow rate of 100 mM (NH4)2CO3 pH 9.25 and detected at 260 nm wavelength. […]

[3] = target: GTPase RbgA; design: method as in PMID 30366986; conditions: read-out: inhibitor constant Ki; cited from earlier work
[4] = target: T3, Ffh-NG/FtsY-NG complex (Escherichia coli, UniProt P0AGD7+P10121, DEL297-453); assay: Analytical size-exclusion chromatography of GMPPNP-dependent Ffh/FtsY complex formation; format: biochemical, E. coli; conditions: 0.25, 0.5 or 1 mM GMPPNP
T3 construct: purified NG domains of (Ec)FtsY and (Ec)Ffh were diluted; His6 (C); made in house; host or cells: E. coli BL21 (DE3)
T3 sequence (P0AGD7 1-296, stated change not applied): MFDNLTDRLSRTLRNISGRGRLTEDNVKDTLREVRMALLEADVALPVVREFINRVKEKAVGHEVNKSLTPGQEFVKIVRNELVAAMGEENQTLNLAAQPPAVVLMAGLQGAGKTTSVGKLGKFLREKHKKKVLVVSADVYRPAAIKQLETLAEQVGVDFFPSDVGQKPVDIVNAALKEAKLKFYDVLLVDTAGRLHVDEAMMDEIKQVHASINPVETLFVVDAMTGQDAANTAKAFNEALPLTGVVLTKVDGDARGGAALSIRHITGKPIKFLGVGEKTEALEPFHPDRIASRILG
T3 sequence (P10121 197-497, stated change not applied): as the sequence (P10121 197-497) above
Experimental: For the analytical SEC, purified NG domains of (Ec)FtsY and (Ec)Ffh were diluted in a buffer containing 20 mM HEPES (pH 7.5), 200 mM NaCl, 20 mM MgCl2 and 20 mM KCl to a final concentration of 100 µM (Fig. 3g) and 50 µM (Fig. 3h, i) each. Indicated amounts of nucleotides were added simultaneously, and the solution was incubated for 30 min at room temperature. 100 µL were then injected at 4 °C on to a pre-equilibrated S200 300/10 GL analytical size-exclusion column (GE Healthcare, München, Germany) on an Äkta system (UNICORN 7.6; Cytiva). Data has been plotted using GraphPad Prism (GraphPad Prism Corp. San Diego).

[5] = (p)ppGpp concentrations exceeding those of GMPPNP by two-fold
[6] = at equal (p)ppGpp/GMPPNP ratios

Row | Compound | membrane targeting of FtsQ-RNCs [1] | membrane targeting of LepB-RNCs [1] | GTP hydrolysis [2] | Ki [3] | Ffh/FtsY complex formation [4, 5] | Ffh/FtsY complex formation [4, 6]
1 | Nc1nc2c(ncn2[C@@H]2O[C@H](COP(=O)(O)OP(=O)(O)O)[C@@H](OP(=O)(O)OP(=O)(O)O)[C@H]2O)c(=O)[nH]1 [ppGpp] | completely blocked | completely blocked | reduction of GTP hydrolysis | 300 µM | roughly abolished | half-inhibited
2 | Nc1nc2c(ncn2[C@@H]2O[C@H](COP(=O)(O)OP(=O)(O)OP(=O)(O)O)[C@@H](OP(=O)(O)OP(=O)(O)O)[C@H]2O)c(=O)[nH]1 [pppGpp] | completely blocked | completely blocked | reduction of GTP hydrolysis | 500 µM | roughly abolished | half-inhibited
